From a melting point compilation (Tetko et al.; mined from patent text by program, amines drawn as free bases though some values may be those of a salt)

Structure (SMILES)	melting point
O=C(O)CC(CC(=O)O)c1ccc(O)cc1	168 to 170 °C
N#Cc1c(N2CCN(C(=O)c3ccco3)CC2)c2cc(F)cnc2n(CC(=O)c2ccccc2)c1=O	293 °C
NC(=O)CC(=S)N1CCCC1	110 to 120 °C
NS(=O)(=O)OCCOc1cccc(O)c1	56 to 60 °C
CCC(=O)NCCC1CCc2ccc3nn(C)cc3c21 (configuration not stated)	105 to 107 °C
CN1C(O)=C(C(=O)Nc2ccc(Br)cc2)c2ccsc2S1(=O)=O	197 to 199 °C
CC(C)c1ccc(-c2cc(-c3cccc(C(=O)O)c3)ccn2)cc1	247 to 249 °C
CCSC=C1SC(=O)N(CCCCSc2cccc3nccn23)C1=O	159 to 160 °C
CC(C)Oc1cccc(=O)n1O	119 to 120 °C
CCOC(=O)C(=CNc1ncnc2ccc(NS(C)(=O)=O)cc12)C(=O)OCC	200 to 202 °C
CC1(C)O[C@@H]2[C@@H](O1)[C@H](C(=O)O)O[C@H]2n1cnc2c(N)nc(I)nc21	187 to 190 °C
CSC1=NN=C(c2ccc([N+](=O)[O-])cc2)c2cc3c(cc2C1)OCO3	280 to 281 °C
Cc1cc(C)c2c(O)c(O)c(O)nc2c1	280 to 282 °C
CC(C#CC1CC1)N(O)C(N)=O (configuration not stated)	142 to 143 °C
Cc1oc(-c2ccco2)nc1/C=C/c1ccc(C=CC=C2OC(=O)NC2=O)cc1	290 to 291 °C
COC(=O)CN(C)C(=O)c1c(OCc2ccccc2)ccc2c(C(F)(F)F)c(OC)ccc12	95 to 98 °C
NC(CCCl)C(=O)c1ccccc1 (configuration not stated)	44 to 46 °C
O=C1CC(O)CC(/C=C/c2ccc(Cl)c(Cl)c2)O1 (configuration not stated)	92 to 94 °C
O=c1oc(=O)n(-c2ccccc2)c2ccccc12	183 °C
Nc1ncc(-c2noc(-c3cnn4c(C(F)(F)F)cc(-c5ccc(C(F)(F)F)c(F)c5)nc34)n2)cn1	270 °C
CN(CC(=O)O)C(=O)CC1=C(n2nc(-c3c(-c4ccccc4)nn4ccccc34)ccc2=O)CCCC1	135 to 138 °C
O=[N+]([O-])c1cc(Cl)c(Cl)cc1N[C@@H]1C[C@H](CO)[C@@H](O)[C@H]1O	179 to 181 °C
C=C1CCC2C3CC=C4C=C(OC)CCC4(C)C3CCC12C (configuration not stated)	97 to 99 °C
CNC(=O)c1ccc(N2CCN(Cc3cnc4c(c3)[nH]c(=O)n3cccc43)CC2)c(F)c1	288 to 294 °C
COc1cccc(CNC(=O)c2nc3scc(CC(=O)O)c3c(=O)[nH]2)c1	228 to 229 °C
COC(=O)c1ccc(O)c(C(=O)CC(=O)c2ccccc2OC(C)C)c1	105 to 107 °C

Structure (SMILES)	melting point
CC(C)(C)OC(=O)NCCON=C(c1ccccc1)c1cc2ccncc2[nH]1	84 to 88 °C
COCCOCc1c(CN(C)CC(O)c2cccnc2)sc2c(=O)c(C(=O)NCc3ccc(Cl)cc3)cn(C)c12 (configuration not stated)	129 to 132 °C
O=[N+]([O-])c1cccc2[nH]ncc12	172 to 174 °C
Cc1nc2c(N)nc3ccccc3c2n1CCCCC(=O)N1CCOCC1	218 to 219 °C
CS(=O)(=O)CCOS(C)(=O)=O	55 to 57 °C
COc1ccc(N(N)c2ncnc3cc(Cl)ccc23)cc1	124 to 127 °C
COC(=O)c1cccc(COc2ccc(S(=O)(=O)c3ccc(C)nc3Nc3c(C)cc(C)cc3C)cc2)c1	148 to 150 °C
COc1ccc(-c2cc(=O)n(Cc3ccccn3)nc2-c2ccc(OC)cc2)cc1	116 to 117 °C
CCCC(N)CCCCCCC(=O)O (configuration not stated)	107 to 108 °C
CCN(Cc1cc(Br)ccc1OCc1ccccc1)c1ccc(C(=O)NCc2cccnc2)cc1	119 to 121 °C
CCC1(CC)OC(=O)Nc2ccc(-c3cccc(Cl)c3)cc21	150 to 151 °C
Cc1c(F)cccc1Cc1c(-c2ccccc2)c2cc(O)cnn2c1C(=O)N1CCN(C(=O)OC(C)(C)C)CC1	165 °C
COc1ccc(-c2cc(OC)c(OC)cc2[N+](=O)[O-])cc1OC	149 to 151 °C
CCOC(CNC(=S)Nc1ccn(C)n1)OCC	152 to 155 °C
CC(C)(C)[Si](C)(C)OCCOc1cccnc1Br	81 °C
CC(C)(C)OC(=O)C(N)Cn1c(=O)c(-c2cccs2)nc2ccccc21 (configuration not stated)	144 to 145 °C
CC(C)(C)C(=O)NS(=O)(=O)c1cccc(N)c1	147 to 150 °C
CON=C1COc2cc(OCc3ccccc3N(OC)C(=O)OC)ccc21	102 to 103 °C
O=S1(=O)N=CN(C2CCCC2)c2ccc(Cl)cc21	218 to 220 °C
COc1ccc(-c2csc(Nc3ccc(C)cn3)n2)cc1OC	190 to 192 °C
O=Cc1c[nH]c2c1ccc1c3cccc(Br)c3[nH]c12	> 250 °C
COc1ccc2c(C(=O)CC(C)=O)c(OC)ccc2c1	88 °C
CCOC(=O)/C=C/C=C/c1cc2cc(N(C)C)ccc2s1	140 to 142 °C
CCOc1ccc(-c2ncc(C#N)c(Cl)n2)cc1	191 to 192 °C
NC(=NCC(F)(F)F)Nc1ccnc(CCCCc2c[nH]cn2)n1	191 to 193 °C
CCCCC1OC(=O)c2cc(NC(C)=O)ccc21 (configuration not stated)	138 to 139 °C

Structure (SMILES)	melting point
COC(=O)c1c(OC)ccc(N)c1OC	78 to 80 °C
CS(=O)(=O)OCC1OC2CC(CC(OS(C)(=O)=O)C2)O1 (configuration not stated)	137 to 138 °C
CS(=O)(=O)c1cc(C(=O)O)cc(NCc2ccccc2)c1Cl	254 to 256 °C
Cc1cc(C)c(OP(=O)(C(=O)c2c(C)cc(C)cc2C)c2ccccc2)c(C)c1 (configuration not stated)	94 to 96 °C
COc1ccc(-c2cc(=O)c3ccc(OCC4CO4)cc3o2)cc1OC (configuration not stated)	148 to 149 °C
CCCc1c(OCCCOc2cccc3c2CCCC3)ccc2c1OC(CCCC=O)(CCCC=O)CC2=O	72 to 73 °C
CCOC(=O)c1cc2cc(F)cnc2n1Cc1ccncc1	236 to 237 °C
O=c1[nH]c2ncc(-c3ccc(O)nc3)nc2n1CC1CCCCC1	> 400 °C
CCOC(=O)CCc1ccc2c(c1)nc(N)c1nc(CC)n(CC3CCOCC3)c12	172 to 173 °C
COc1cc(OC(C)C)cc2c1-c1c(OC(C)C)cccc1C2=O	74 to 75 °C
CCOC(=O)C1=CC(CF)(CF)Oc2ccc(Cl)cc21	76 to 78 °C
NC(=O)CC1(c2ccccc2)Oc2ccccc2O1	114 to 115 °C
COC(=O)C(=CN1CCCC1)C(=O)c1cc(F)c(Cl)cc1Cl	74 to 76 °C
CC12CCC(O)CC1=CCC1C2CCC2(C)C(n3nccn3)=CCC12 (configuration not stated)	176 to 177 °C
Cc1coc(N(CCCC(=O)O)C(=O)C(C)C)n1	81 to 82 °C
Cc1ccc(Br)cc1Cn1c(C=O)nn(C)c1=O	108 °C
CCCCc1oc2ccccc2c1-c1ncc(-c2ccc3c(Br)c(OCc4ccc(C(=O)O)cc4)ccc3c2)o1	281 to 283 °C
CN1C(=O)N(c2c(Cl)cccc2Cl)Cc2cnc(NCCc3ccc(N)cc3)nc21	174 to 175 °C
C[C@]1(COc2ccc(N3CCC(Oc4ccc(OC(F)(F)F)cc4)CC3)nc2)Cn2cc([N+](=O)[O-])nc2O1	186 to 187 °C
COc1cc(C=CC(=O)OC2C(O)C3CC(OC(=O)c4cc(OC)c(OC)c(OC)c4)CC2[N+]3(C)[O-])cc(OC)c1OC (configuration not stated)	118 to 121 °C
CCc1cccc2c3c([nH]c12)C(CC)(CC(=O)OC)OCC3NC(N)=O (configuration not stated)	180 °C
COC(=O)c1[nH]ccc1OC(C)C	77 to 79 °C
O=C1Nc2ccccc2Nc2ncccc21	295 to 296 °C
C=CCOc1cc(N2C(=O)C3=C(CCCC3)C2=O)ccc1Cl	118 to 120 °C
CC(=O)c1ccc(OCC(O)COc2ccccc2)cc1O (configuration not stated)	63 to 65 °C
CC(=O)Nc1ccc2c(c1)S(=O)(=O)NCN2C1CC1	230 to 232 °C

Structure (SMILES)	melting point
CCOC(=O)C1=C(C)NC(COC(=O)CCC(=O)O)=C(C(=O)OCC)C1c1ccccc1Cl (configuration not stated)	130 to 131 °C
NC(=O)c1snc(-c2cccc(C(F)(F)F)c2)c1N	124 °C
O=C(CCc1ccccc1)Nc1cc(-c2nnc(CCc3cccc(C(F)(F)F)c3)o2)ccn1	169 to 170 °C
CCn1nc(-c2ccc(Cl)cc2[N+](=O)[O-])c2c1CCCC2=O	184 °C
O=C(NCCCCCCCCn1ccnc1)c1ccc(Cl)s1	95 to 97 °C
COC(=O)[C@H](Cc1cccc(Br)c1)NC(=O)OC(C)(C)C	60 to 61 °C
CN(C)CCCN1C(=O)c2cscc2N(C)c2ccccc21	52 to 56 °C
CC(=O)c1cc(C(=O)c2ccc3ccccc3c2)c[nH]1	172 to 174 °C
FC(F)(F)c1cc(Br)c2nc(N3CCN(c4ncc(Cl)cc4Cl)CC3)[nH]c2c1	176 to 179 °C
CCOc1ccc2c(c1)C(C)(c1cc(CN3CCCC3)ccc1Cl)C(=O)N2S(=O)(=O)c1ccc(C(=O)NC(C)(C)C)cc1OC (configuration not stated)	132 °C
O=c1oc2ccccc2c2ccc(O)c(O)c12	185 to 187 °C
Cc1ccc(-c2cncnc2Cl)cc1	67 to 70 °C
CC(=O)Nc1ccc(/C=C/C(=O)O)cn1	291 to 292 °C
Cc1cc(C)c(CO)c(-c2ccc(F)c(C)c2)c1	74 to 75 °C
OCc1cc2cc(-c3ccc4ccc(Cl)cc4n3)ccc2o1	206 to 207 °C
CC(C)n1nc(-c2sc(NC(=O)N3CCCCC3)nc2-c2ccccc2)ccc1=O	138 to 140 °C
COc1ccc(C[C@H](NC(=O)OC(C)(C)C)C(=O)c2ccc(O)cc2)cc1	133 to 135 °C
N#Cc1ccc(N(Cc2ccc(O)cc2)n2cncn2)cc1-c1ccccc1	169 to 170 °C
CCCCn1c(=O)c(NC(=O)Nc2c(C(C)C)ccc(NC(=O)c3cccnc3)c2C(C)C)c(-c2cccc(OC)c2)c2cccnc21	179 to 180 °C
CCOC(=O)Oc1cc2occ(C(=O)Cl)c(=O)c2cc1OC(=O)OCC	89 to 92 °C
O=C(Nc1nc(C(F)(F)C(F)(F)F)c(CO)s1)c1cc(C(F)(F)F)cc(C(F)(F)F)c1	164 to 165 °C
NS(=O)(=O)c1ccc(-c2[nH]c3ccccc3c2-c2ccc(F)cc2)cc1	228 to 230 °C
CNC1(c2ccccc2Cl)C(=O)N(S(=O)(=O)c2ccc([N+](=O)[O-])cc2)c2ccc(Cl)cc21 (configuration not stated)	220 to 221 °C
CC(C)(C)c1ccc(Oc2coc(C(=O)O)cc2=O)cc1	190 to 193 °C
